From PubChem BioAssay AID256 (DTP/NCI, 2004) come the findings set out here.

“And” between values parts separate entries of the source, which are not always exact repeats. Equal entries are not always repeated. Toxic doses and inconclusive results are not listed.

In the test the test system is CD2F1 mice, L1210 leukemia ip, survival T/C. The test is described as follows: NCI In Vivo Anticancer Drug Screen. Data for tumor model L1210 Leukemia (intraperitoneal) in CD2F1 (CDF1) mice. The following applies: endpoint: mean survival time, higher = longer survival. The gist of the method:
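Implant tumor; dose compound or vehicle; measure endpoint in both groups; report treated divided by control.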

Where [1] appears, read: dose: 100.0 mg/kg/injection, schedule: Q04DX002 (ip), vehicle: saline with Tween-80.
The mark [2] stands for this setting: dose: 200.0 mg/kg/injection, schedule: Q04DX002 (ip), vehicle: saline with Tween-80.
The mark [3] stands for this setting: dose: 400.0 mg/kg/injection, schedule: Q04DX002 (ip), vehicle: saline with Tween-80.
The mark [4] stands for this setting: dose: 100.0 mg/kg/injection, schedule: Q04DX003 (ip), vehicle: saline with Tween-80.
The mark [5] stands for this setting: dose: 200.0 mg/kg/injection, schedule: Q04DX003 (ip), vehicle: saline with Tween-80.
Setting [6] is: dose: 400.0 mg/kg/injection, schedule: Q04DX003 (ip), vehicle: saline with Tween-80.

With `O=C1N[C@@H]([C@H]2CC[C@H](Cl)CN2)C(=O)N[C@H]1[C@H]1CC[C@H](Cl)CN1`, the T/C (dose: 0.25 mg/kg/injection, schedule: Q01DX009 (iv), vehicle: saline) was 100 % of control; the T/C (dose: 0.25 mg/kg/injection, schedule: Q03HX016 (ip), vehicle: saline) is 115 % of control; the T/C (dose: 0.5 mg/kg/injection, schedule: Q01DX009 (iv), vehicle: saline) is 112 % of control; the T/C (dose: 0.5 mg/kg/injection, schedule: Q01DX009 (oral), vehicle: saline) was 108 % of control; the T/C (dose: 0.5 mg/kg/injection, schedule: Q03HX016 (ip), vehicle: saline) is 151 % of control; the T/C (dose: 0.5 mg/kg/injection, schedule: Q03HX024 (ip), vehicle: saline) was 196 % of control. The T/C runs as follows: (dose: 1.0 mg/kg/injection, schedule: Q01DX001 (iv), vehicle: saline) 108 % of control; (dose: 1.0 mg/kg/injection, schedule: Q01DX009 (ip), vehicle: saline) 167 % of control; (dose: 1.0 mg/kg/injection, schedule: Q01DX009 (oral), vehicle: saline) 160 % of control; (dose: 1.0 mg/kg/injection, schedule: Q03HX008 (ip), vehicle: saline) 305 % of control; (dose: 1.0 mg/kg/injection, schedule: Q03HX016 (ip), vehicle: saline) 252 % of control; (dose: 1.0 mg/kg/injection, schedule: Q03HX024 (ip), vehicle: saline) 300 % of control. Further, the T/C is 116 % of control (dose: 1.0 mg/kg/injection, schedule: Q04DX003 (oral), vehicle: saline); 120 % of control (dose: 1.0 mg/kg/injection, schedule: Q08DX002 (ip), vehicle: saline); 109 % of control (dose: 2.0 mg/kg/injection, schedule: Q01DX001 (iv), vehicle: saline); 111 % of control (dose: 2.0 mg/kg/injection, schedule: Q01DX001 (oral), vehicle: saline); 123 % of control (dose: 2.0 mg/kg/injection, schedule: Q01DX001 (sc), vehicle: saline); 223 % of control (dose: 2.0 mg/kg/injection, schedule: Q01DX009 (ip), vehicle: saline). Moreover, the T/C is, setting by setting: (dose: 2.0 mg/kg/injection, schedule: Q01DX009 (iv), vehicle: saline) 160 % of control; (dose: 2.0 mg/kg/injection, schedule: Q01DX009 (oral), vehicle: saline) 158 % of control; (dose: 2.0 mg/kg/injection, schedule: Q03HX008 (ip), vehicle: saline) 354 % of control; (dose: 2.0 mg/kg/injection, schedule: Q03HX016 (ip), vehicle: saline) 95 % of control; (dose: 2.0 mg/kg/injection, schedule: Q03HX024 (ip), vehicle: saline) 93 % of control; (dose: 2.0 mg/kg/injection, schedule: Q04DX003 (ip), vehicle: saline) 171 % of control. Moreover, the T/C is 119 % of control (dose: 2.0 mg/kg/injection, schedule: Q04DX003 (oral), vehicle: saline); 117 % of control (dose: 2.0 mg/kg/injection, schedule: Q08DX002 (oral), vehicle: saline); 155 % of control (dose: 2.5 mg/kg/injection, schedule: Q01DX001 (ip), vehicle: water); 157 % of control (dose: 4.0 mg/kg/injection, schedule: Q01DX001 (ip), vehicle: saline); 124 % of control (dose: 4.0 mg/kg/injection, schedule: Q01DX001 (oral), vehicle: saline); 107 % of control (dose: 4.0 mg/kg/injection, schedule: Q01DX009 (ip), vehicle: saline). For the same molecule, the T/C is, setting by setting: (dose: 4.0 mg/kg/injection, schedule: Q01DX009 (iv), vehicle: saline) 157 % of control; (dose: 4.0 mg/kg/injection, schedule: Q01DX009 (oral), vehicle: saline) 86 % of control; (dose: 4.0 mg/kg/injection, schedule: Q04DX003 (ip), vehicle: saline) 188 % of control and 221 % of control; (dose: 4.0 mg/kg/injection, schedule: Q04DX003 (oral), vehicle: saline) 156 % of control; (dose: 4.0 mg/kg/injection, schedule: Q08DX002 (ip), vehicle: saline) 179 % of control; (dose: 5.0 mg/kg/injection, schedule: Q01DX001 (ip), vehicle: water) 241 % of control and 269 % of control. The T/C was 261 % of control (dose: 6.0 mg/kg/injection, schedule: Q01DX001 (ip), vehicle: saline); 188 % of control (dose: 6.7 mg/kg/injection, schedule: Q01DX001 (ip), vehicle: saline); 286 % of control and 501 % of control (dose: 8.0 mg/kg/injection, schedule: Q01DX001 (ip), vehicle: saline); 157 % of control (dose: 8.0 mg/kg/injection, schedule: Q01DX001 (iv), vehicle: saline); 154 % of control and 175 % of control (dose: 8.0 mg/kg/injection, schedule: Q01DX001 (oral), vehicle: saline); 162 % of control (dose: 8.0 mg/kg/injection, schedule: Q01DX001 (sc), vehicle: saline). The T/C (dose: 8.0 mg/kg/injection, schedule: Q04DX003 (ip), vehicle: saline) was 246 % of control; the T/C (dose: 8.0 mg/kg/injection, schedule: Q04DX003 (oral), vehicle: saline) was 164 % of control; the T/C (dose: 8.0 mg/kg/injection, schedule: Q08DX002 (ip), vehicle: saline) is 415 % of control; the T/C (dose: 8.0 mg/kg/injection, schedule: Q08DX002 (oral), vehicle: saline) is 155 % of control; the T/C (dose: 10.0 mg/kg/injection, schedule: Q01DX001 (ip), vehicle: water) is 296 % of control and 349 % of control; the T/C (dose: 16.0 mg/kg/injection, schedule: Q01DX001 (iv), vehicle: saline) was 212 % of control. Besides, the T/C by setting is: (dose: 16.0 mg/kg/injection, schedule: Q01DX001 (oral), vehicle: saline) 100 % of control; (dose: 16.0 mg/kg/injection, schedule: Q01DX001 (sc), vehicle: saline) 94 % of control; (dose: 16.0 mg/kg/injection, schedule: Q04DX003 (ip), vehicle: saline) 94 % of control and 95 % of control; (dose: 16.0 mg/kg/injection, schedule: Q04DX003 (oral), vehicle: saline) 90 % of control; (dose: 16.0 mg/kg/injection, schedule: Q08DX002 (ip), vehicle: saline) 100 % of control; (dose: 16.0 mg/kg/injection, schedule: Q08DX002 (oral), vehicle: saline) 90 % of control.
In the case of `COc1cc(/C=C/C(=O)O)ccc1OC(C)=O`, the T/C (dose: 100.0 mg/kg/injection, schedule: Q01DX009 (ip), vehicle: saline) is 98 % of control; the T/C (dose: 200.0 mg/kg/injection, schedule: Q01DX009 (ip), vehicle: saline) was 100 % of control; the T/C (dose: 400.0 mg/kg/injection, schedule: Q01DX009 (ip), vehicle: saline) is 93 % of control.
Turning to `O=C(COc1ccc(Cl)cc1Cl)Nc1ccccc1`, the T/C is, setting by setting: under setting [1], 91 % of control; under setting [2], 95 % of control; under setting [3], 98 % of control.
In the case of `COc1ccc(NC(=O)Nc2cccc(Cl)c2)c(Cl)c1`, the T/C by setting is: (dose: 25.0 mg/kg/injection, schedule: Q04DX002 (ip), vehicle: saline with Tween-80) 88 % of control; (dose: 50.0 mg/kg/injection, schedule: Q04DX002 (ip), vehicle: saline with Tween-80) 92 % of control; under setting [3], 88 % of control.
With `O=C(NCCCCCCCCCCNC(=O)Nc1ccc(C2=NCCCN2)cc1)Nc1ccc(C2=NCCCN2)cc1`, the T/C by setting is: (dose: 5.0 mg/kg/injection, schedule: Q01DX009 (ip), vehicle: saline) 103 % of control; (dose: 8.0 mg/kg/injection, schedule: Q01DX009 (ip), vehicle: saline) 117 % of control; (dose: 19.0 mg/kg/injection, schedule: Q01DX009 (ip), vehicle: saline) 121 % of control.
For the molecule `O=C(C1=CN(CCCO)CCC1)c1cc2ccccc2n1S(=O)(=O)c1ccccc1`, the T/C was 104 % of control under setting [4], 90 % of control under setting [5] and 97 % of control under setting [6].
As for `CCCCOCCSc1ccccc1`, the T/C (dose: 100.0 mg/kg/injection, schedule: Q01DX001 (ip), vehicle: saline) is 96 % of control and the T/C (dose: 200.0 mg/kg/injection, schedule: Q01DX001 (ip), vehicle: saline) is 93 % of control.
`CC1=C(C)C(=O)C(CC2=C(C)C(=O)C(C)=C(C)C2=O)=C(C)C1=O`: the T/C under setting [1] is 102 % of control, the T/C under setting [2] was 91 % of control and the T/C under setting [3] is 109 % of control.
Turning to `OC(c1nc2ccccc2[nH]1)C(O)c1nc2ccccc2[nH]1` (configuration not stated), the T/C by setting is: under setting [4], 101 % of control; under setting [5], 102 % of control; under setting [6], 96 % of control.
